What was measured:
c-kit = c-kit (Homo sapiens (Human), UniProt P10721); test: Reaction Biology HotSpot kinase assay; assay type: biochemical; conditions: 500 nM compound, 100 μM radiolabeled ATP
Protocol: (§1) The Reaction Biology Corporation (www.reactionbiology.com, Malvern, PA) HotSpot assay platform was used to measure kinase/inhibitor interactions exactly as previously described. Kinase and substrate were mixed in a buffer containing 20 mM HEPES pH 7.5, 10 mM MgCl2, 1 mM EGTA, 0.02% Brij35, 0.02 mg/mL BSA, 0.1 mM Na3VO4, 2 mM DTT and 1% DMSO. Single-dose of compounds (500 nM) were then added to each reaction mixture. After 20-minute incubation. ATP (Sigma) and [γ-^33P] ATP (Perkin Elmer) were added at a final total concentration of 100 μM for addition 2 hours at room temperature, followed by spotting onto P81 ion exchange cellulose chromatography paper (Whatman, Inc.). […] Percent remaining kinase activity of a vehicle (DMSO) containing kinase reaction was calculated for each kinase/inhibitor pair using Prism 5 (GraphPad).
as §1, with “1” for “DTT”, “incubation,” for “incubation.”

TRKC = TRKC (Homo sapiens (Human), UniProt Q16288); test: Reaction Biology HotSpot kinase assay; assay type: biochemical; conditions: 500 nM compound, 100 μM radiolabeled ATP
Chain of TRKC (Q16288 32-839): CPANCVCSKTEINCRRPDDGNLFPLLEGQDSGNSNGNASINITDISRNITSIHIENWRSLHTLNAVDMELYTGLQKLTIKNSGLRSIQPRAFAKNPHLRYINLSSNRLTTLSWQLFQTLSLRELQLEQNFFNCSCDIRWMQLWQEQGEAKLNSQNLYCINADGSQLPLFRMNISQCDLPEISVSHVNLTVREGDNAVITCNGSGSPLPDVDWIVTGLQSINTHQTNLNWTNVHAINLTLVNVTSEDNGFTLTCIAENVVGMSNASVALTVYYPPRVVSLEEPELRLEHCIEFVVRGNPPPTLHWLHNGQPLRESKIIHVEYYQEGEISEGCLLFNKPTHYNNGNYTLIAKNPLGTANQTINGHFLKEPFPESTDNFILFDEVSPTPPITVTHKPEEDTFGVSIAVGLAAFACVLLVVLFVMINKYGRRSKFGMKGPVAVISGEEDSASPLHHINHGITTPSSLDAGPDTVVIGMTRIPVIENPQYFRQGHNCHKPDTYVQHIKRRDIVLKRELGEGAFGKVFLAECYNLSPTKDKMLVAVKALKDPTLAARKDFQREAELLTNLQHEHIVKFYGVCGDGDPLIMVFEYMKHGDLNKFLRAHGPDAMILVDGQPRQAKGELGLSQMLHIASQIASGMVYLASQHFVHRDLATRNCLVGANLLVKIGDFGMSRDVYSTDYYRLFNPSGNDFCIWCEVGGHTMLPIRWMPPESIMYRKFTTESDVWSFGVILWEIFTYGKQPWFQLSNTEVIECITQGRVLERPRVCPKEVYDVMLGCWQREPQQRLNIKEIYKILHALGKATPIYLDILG
Protocol: as §1
as §1, with “1” for “DTT”, “incubation,” for “incubation.”

MV-4-11 = test: Proliferation inhibition at single concentration (CellTiter-Blue); assay type: cell-based; conditions: 1 μM compound
MV4-11 [1] = test: Activity against AML cell line MV4-11 (CellTiter-Blue, 72 h); assay type: cell-based
Protocol: Cells were added to 96 well plates at 2000 cells per well for adherent lines and 4000 cells per well for suspension lines and kept in an incubator overnight. The following day the plates were treated with compounds to give rise to the final concentrations of; 100 μM, 10 μM, 5 μM 1 μM, 500 nM, 100 nM, 10 nM, […]. The plates were then stored in the incubator for 72 hours. On the third day the cells were assayed with 20 μL of CellTiter—Blue Cell Viability Assay per well and were incubated for 4 hours. After 4 hours' fluorescence intensity was taken on a plate reader: Excitation: 560/10 Emission: 590/10. IC50 analysis was performed on GraphPad Prism 7.

HCT116 = test: Proliferation inhibition at single concentration (CellTiter-Blue); assay type: cell-based; conditions: 1 μM compound
HeLa = test: as above; assay type: cell-based; conditions: 1 μM compound
Protocol: (§2) Plates were then treated with compound diluted in dimethyl sulfoxide (DMSO) as well as a DMSO control the following day for 72 hours. After this time the plates were then treated with 10 μL of CellTiter-Blue Cell Viability Assay (Promega, Madison, WI) for 4 hours. Then the plates were read on a plate reader (Bio-Tek, Winooski, VT). Data was analyzed on Excel as a percent of the DMSO vehicle.
(§3) Antiproliferative activities against AML cell line, MV4-11 (a FLT3-driven cell line) and three other solid tumors (MCF7, breast, HCT116, colon and HeLa) have been investigated (Tables 6A and 6B and FIG. 10).

MCF-7 = test: as above; assay type: cell-based; conditions: 1 μM compound
Protocol: as §2, §3

MOLM14 = test: Anti-proliferative effects in leukemia panel; assay type: cell-based; conditions: Homo sapiens, MOLM-14
Protocol: Molm-14 cells were the kind gift of Dr. Mark Levis from Johns Hopkins University. THP-1, MV4-11, K-562 and MRC-5A cells were purchased from ATCC (ATCC, Manassas, VA). All cell lines were grown in 37° C. with 5% CO2 atmosphere with RPMI 1640 (Life technologies, Carlsbad. CA) supplemented with heat-inactivated 10% (V/V) fetal bovine serum. Cell lines were grown and maintained according to ATCC recommendations.
(§4) Cell lines were seeded into 96-well plates the afternoon prior to treatment. Approximately 18 hours later, compounds were semi-serially diluted in dimethyl sulfoxide (DMSO) and then growth medium, and added to cells. Plates were incubated for 72 hours prior to addition of Alamar Blue (Life Technologies. Carlsbad, CA). Plates were read after 4 additional hours of incubation at 37° C. using a Bio-Tek Synergy HT plate reader (Bio-Tek, Winooski. VT). Data was analyzed and graphed using GraphPad Prism Software (Graphpad. La Jolla, CA).

MV4-11 [2] = test: Anti-proliferative effects in leukemia panel; assay type: cell-based; conditions: for IC50: Homo sapiens, MV4-11, read-out: Anti-proliferative effects in leukemia panel (μM) MV4-11
Protocol: Molm-14 cells were the kind gift of Dr. Mark Levis from Johns Hopkins University. […] Cell lines were grown and maintained according to ATCC recommendations.
as §4

[3] = 72 h, read-out: IC50 against MV4-11/uM
[4] = FIG. 1, read-out: anticancer activities (IC50) against MV4-11
[5] = Table 2, read-out: IC50 (nM) against MV4-11 (AML cell line)

Chain of c-kit (P10721 26-976): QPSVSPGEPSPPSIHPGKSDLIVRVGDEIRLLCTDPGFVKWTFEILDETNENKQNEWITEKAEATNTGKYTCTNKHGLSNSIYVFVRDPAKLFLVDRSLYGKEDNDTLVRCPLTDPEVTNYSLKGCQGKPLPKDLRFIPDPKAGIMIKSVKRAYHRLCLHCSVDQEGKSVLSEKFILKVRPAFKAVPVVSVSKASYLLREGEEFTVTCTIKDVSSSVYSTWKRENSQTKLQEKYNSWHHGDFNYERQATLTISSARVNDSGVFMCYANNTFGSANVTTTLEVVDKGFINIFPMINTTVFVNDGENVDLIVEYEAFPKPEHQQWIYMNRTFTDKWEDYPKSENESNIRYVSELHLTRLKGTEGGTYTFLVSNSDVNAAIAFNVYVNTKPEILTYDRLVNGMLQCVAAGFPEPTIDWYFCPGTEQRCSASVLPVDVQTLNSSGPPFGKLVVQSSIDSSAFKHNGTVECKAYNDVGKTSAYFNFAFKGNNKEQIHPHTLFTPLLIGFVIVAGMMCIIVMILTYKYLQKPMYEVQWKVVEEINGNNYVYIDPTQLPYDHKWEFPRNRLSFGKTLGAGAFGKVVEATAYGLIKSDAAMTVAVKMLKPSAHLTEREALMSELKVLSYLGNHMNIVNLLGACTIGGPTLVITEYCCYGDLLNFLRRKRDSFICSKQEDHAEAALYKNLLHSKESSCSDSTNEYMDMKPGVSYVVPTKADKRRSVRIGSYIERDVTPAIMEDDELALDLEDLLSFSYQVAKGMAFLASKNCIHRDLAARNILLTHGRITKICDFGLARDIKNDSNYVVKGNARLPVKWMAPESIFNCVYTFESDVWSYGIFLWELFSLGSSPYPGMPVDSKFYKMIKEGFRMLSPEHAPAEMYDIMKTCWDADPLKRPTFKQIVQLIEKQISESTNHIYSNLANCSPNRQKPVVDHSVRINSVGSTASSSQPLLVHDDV

Row | Compound | Percent inhibition of proliferation MV-4-11 (MV-4-11) [%] | IC50 (MV4-11 [1]; [3]) [µM] | Percent inhibition of proliferation HCT116 (HCT116) [%] | Percent inhibition of proliferation HeLa (HeLa) [%] | Percent inhibition of proliferation MCF-7 (MCF-7) [%] | IC50 (MOLM14) [µM] | IC50 (MV4-11 [2]) [µM] | other results
1 | (E)-4-(2-(3-amino-6-chloroisoquinolin-4-yl)vinyl)-N-hydroxybenzimidamide [HSM1859] |  |  |  |  |  |  |  | % inhibition of c-Kit (c-kit): 62%; % inhibition of TrkC (TRKC): 42%
2 | Nc1ncc2ccc(Cl)cc2c1C#Cc1ccc(C(=O)N2CCC(N3CCCCC3)CC2)cc1 [HSN135] | 100 | 0.033 | 21 | 0 | 35 |  |  | 
3 | CC1(C)CNC(c2ccc(C#Cc3c(N)ncc4ccc(Cl)cc34)cc2)=N1 [HSM1743] |  |  |  |  |  | 0.3 | 0.07 ± 0.02 | inhibition at 0.5 µM (c-kit): 78%; inhibition at 0.5 µM (TRKC): 44%
4 | Nc1nccc(Cl)c1C#Cc1ccc(C2=NCCN2)cc1 [HSM1798] |  |  |  |  |  | > 5 | > 5 | anti-proliferative activity in words, MV4-11 / AML cell lines (MV4-11 [2]): ineffective; inhibition at 0.5 µM (c-kit): 15%; inhibition at 0.5 µM (TRKC): 11%
5 | Nc1ncc2ccc(Cl)cc2c1C#Cc1ccccc1C(=O)NCCCN1CCCCC1 [HSM1717] | 82 | 0.05 | 33 | 2 | 76 |  |  | 
6 | CN1CCN(CCCNC(=O)c2ccc(C#Cc3c(N)ncc4ccc(Cl)cc34)cc2)CC1 [HSM1674] | 93 | 0.11 | 14 | 8 | 36 |  |  | 
7 | Nc1ncc2ccc(Cl)cc2c1C#Cc1ccc(C2=NC(C3CC3)CN2)cc1 (stereo not shown) [HSM1703] |  |  |  |  |  | 0.1 | 0.3 ± 0.2 | inhibition at 0.5 µM (c-kit): 60%; inhibition at 0.5 µM (TRKC): 49%
8 | CN(CCCN1CCCCC1)C(=O)c1ccc(C#Cc2c(N)ncc3ccc(Cl)cc23)cc1 [HSN105] | 88 | 0.061 | 40 | 1 | 12 |  |  | 
9 | Nc1ncc2[nH]ccc2c1C#Cc1ccc(C2=NCCN2)cc1 [HSM1781] |  |  |  |  |  | > 5 | > 5 | anti-proliferative activity in words, MV4-11 / AML cell lines (MV4-11 [2]): ineffective
10 | CN(C)CCNC(=O)c1ccc(C#Cc2c(N)ncc3ccc(Cl)cc23)cc1 [HSM1669] | 83 | 0.26 | 46 | 20 | 98 |  |  | IC50 (MV4-11 [1]; [4]): 0.26 µM
11 | N=C(NO)c1ccc(C#Cc2c(N)ncc3ccc(Cl)cc23)cc1 [HSM1820] |  |  |  |  |  | 0.05 | 0.04 ± 0.01 | inhibition at 0.5 µM (c-kit): 86%; inhibition at 0.5 µM (TRKC): 74%
12 | CN(C)CCCNC(=O)c1cccc(C#Cc2c(N)ncc3ccc(Cl)cc23)c1 [HSM1688] | 74 | 0.25 | 43 | 64 | 33 |  |  | IC50 (MV4-11 [1]; [4]): 0.25 µM
13 | Nc1ncc2ccc(Cl)cc2c1C#Cc1ccc(C(=O)NCCCN2CCCCC2)cc1 [HSM1683] | 95 | 0.003 | 10 | 49 | 57 |  |  | IC50 (MV4-11 [1]; [5]): 0.0421 ± 0.0013 µM
14 | CC(C)(C)c1cc(NC(=O)Nc2ccc(-c3cn4c(n3)sc3cc(OCCN5CCOCC5)ccc34)cc2)no1 [Quizartinib, quizartinib, reference compound] |  |  |  |  |  | 0.001 ± 0.001 | 0.001 ± 0.001 | 
15 | N=C(NO)c1cccc(C#Cc2c(N)ncc3ccc(Cl)cc23)c1 [HSM1819] |  |  |  |  |  | 0.06 | 0.02 ± 0.01 | anti-proliferative activity in words, MV4-11 / AML cell lines (MV4-11 [2]): very potent; inhibition at 0.5 µM (c-kit): 82%; inhibition at 0.5 µM (TRKC): 80%
16 | Nc1ncc2ccc(Cl)cc2c1C#Cc1ccc(C(=O)NCCCN2CCCC2)cc1 [HSM1673] | 98 | 0.011 | 28 | 38 | 56 |  |  | IC50 (MV4-11 [1]; [5]): 0.025 ± 0.0014 µM
17 | COCCCNC(=O)c1ccc(C#Cc2c(N)ncc3ccc(Cl)cc23)cc1 [HSM1692] | 81 | 0.45 | 29 | 0 | 22 |  |  | IC50 (MV4-11 [1]; [4]): 0.45 µM
18 | Nc1ncc2ccc(Cl)cc2c1C#Cc1ccc(C(=O)N[C@H]2CC[C@H](N)CC2)cc1.O=C(O)C(F)(F)F [HSN129] | 99 | 0.008 | 29 | 22 | 37 |  |  | 
19 | Nc1ccc(CCNC(=O)c2ccc(C#Cc3c(N)ncc4ccc(Cl)cc34)cc2)cc1 [HSN136] | 86 | 0.095 | 38 | 0 | 33 |  |  | 
20 | CN1CCN(Cc2ccc(NC(=O)c3ccc(C#Cc4c(N)ncc5ccc(Cl)cc45)cc3)cc2)CC1 [HSM1661] | 90 | 0.016 | 0 | 1 | 96 |  |  | 
